This note sets out measurements from PMC7184563 (Journal of Medicinal Chemistry, 2020).

One series has as its target BCL6 BTB (Homo sapiens, UniProt P41182). Nature of the series: biochemical. The following applies: BCL6 IC50 (FP), geometric mean.
In series [1] the target is T1, BCL6 (Homo sapiens, UniProt P41182). The format is cell-based. The following applies: SU-DHL-4.
The nature of another series: Microsomal clearance. The format is in vitro ADME.
A short description of another series: PAMPA permeability. Type of series: in vitro ADME.
A short description of a further series: HPLC solubility assay. Type of series: physicochemical. The following applies: kinetic solubility by HPLC in PBS buffer, 1% DMSO, pH 7.4.
A short description of series [2]: Microsomal clearance assay, mouse liver microsomes. The format is in vitro ADME. (Microsomes from liver hold many membrane-bound enzymes, among them those of drug oxidation.)
The target in series [3] is T1, BCL6. Nature of the series: Western blot of BCL6 protein levels, SU-DHL-4 cells. The format is cell-based. The following applies: 4 h at 37 °C. For orientation: A western blot detects proteins with antibodies after separation by electrophoresis.
The target of series [4] is T1, BCL6. Nature of the series: Western blot of BCL6 protein levels, OCI-Ly1 cells. Type of series: cell-based. The settings on record: 4 h at 37 °C.
Series [5] is classed as in vivo, mouse. The following applies: 1 mg/kg iv and 5 mg/kg po, after dosing and 24 h after dose.
The nature of series [6]: PK study in SCID mouse, po. Type of series: in vivo. The settings on record: 15 mg/kg po.
A further series concerns the target BCL6 levels in tumor (Homo sapiens, UniProt P41182). Nature of the series: PK/PD study in OCI-Ly1 DLBCL xenograft model. The settings on record: single dose 15 mg/kg po.

Regarding `Cn1c(=O)n(C)c2cc(Nc3cc(SCc4ccccc4)ncn3)ccc21` [Compound 3], on BCL6 BTB, the IC50 (usually the concentration needed to halve the response being measured) was roughly 100 µM.
Consider `Cn1c(=O)n(CCC(C)(C)O)c2cc(Nc3nc(N4CCCC(C#N)C4)ncc3Cl)ccc21` (centres unmarked) [Compound 27g, 1-(5-Chloro-4-((3-(3-hydroxy-3-methylbutyl)-1-methyl-2-oxo-2,3-dihydro-1H-benzo[d]imidazol-5-yl)amino)pyrimidin-2-yl)piperidine-3-carbonitrile], for which the “BCL6 degradation in the IF assay (in words)” value (“BCL6 degradation” for short) on BCL6 [1] is given as “did not enable degradation”.
Turning to `C[C@@H]1CN(c2ncc(Cl)c(Nc3ccc4c(c3)n(CCC(C)(C)O)c(=O)n4C)n2)C[C@H](C)O1` [Compound 25a, 5-((5-Chloro-2-((2R,6S)-2,6-dimethylmorpholino)pyrimidin-4-yl)amino)-3-(3-hydroxy-3-methylbutyl)-1-methyl-1,3-dihydro-2H-benzo[d]imidazol-2-one], the “BCL6 degradation” value on BCL6 [1] is “not capable of inducing BCL6 degradation”.
Take `Cn1c(=O)n(C)c2cc(Nc3ccnc(Cl)c3C#N)ccc21` [Compound 6, 2-Chloro-4-((1,3-dimethyl-2-oxo-2,3-dihydro-1H-benzo[d]imidazol-5-yl)amino)nicotinonitrile]: in the series “Microsomal clearance”, the “microsomal clearance (in words)” value is “Low microsomal clearance”. The “PAMPA permeability (in words)” value in the series “PAMPA permeability” is “high PAMPA permeability”. Besides, the “Aq. sol. (HPLC, shown in parentheses)” value in “HPLC solubility assay” is on record as “(16) μM”.
For the compound `C[C@@H]1CN(c2ncc(Cl)c(Nc3ccc4c(c3)n(CCC(C)(C)O)c(=O)n4C)n2)C[C@H](C)N1C` [Compound 25c, 5-((5-Chloro-2-((3S,5R)-3,4,5-trimethylpiperazin-1-yl)pyrimidin-4-yl)amino)-3-(3-hydroxy-3-methylbutyl)-1-methyl-1,3-dihydro-2H-benzo[d]imidazol-2-one], at BCL6 [1], the “BCL6 degradation” value is reported as “not capable of inducing BCL6 degradation”.
`CC1CCCN(c2ncc(Cl)c(Nc3ccc4c(c3)n(CCC(C)(C)O)c(=O)n4C)n2)C1` (centres unmarked) [Compound 24a, 5-((5-Chloro-2-(3-methylpiperidin-1-yl)pyrimidin-4-yl)amino)-3-(3-hydroxy-3-methylbutyl)-1-methyl-1,3-dihydro-2H-benzo[d]imidazol-2-one]: at BCL6 [1], the “BCL6 degradation” value was “identified as degraders”. The “metabolism in mouse microsomes (in words)” value in series [2] is listed as “rapid metabolism”.
Regarding `Cn1c(=O)n(CCC(C)(C)O)c2cc(Nc3nc(N4CC5CCC(C4)C5(F)F)ncc3Cl)ccc21` [Compound 28a, 5-((5-Chloro-2-(8,8-difluoro-3-azabicyclo[3.2.1]octan-3-yl)pyrimidin-4-yl)amino)-3-(3-hydroxy-3-methylbutyl)-1-methyl-1,3-dihydro-2H-benzo[d]imidazol-2-one], the “BCL6 degradation” value on BCL6 [1] is “loss of degradation activity”.
As for `Cn1c(=O)n(CCC(C)(C)O)c2cc(Nc3ccnc(Cl)c3C#N)ccc21` [Compound 17a, 2-Chloro-4-((3-(3-hydroxy-3-methylbutyl)-1-methyl-2-oxo-2,3-dihydro-1H-benzo[d]imidazol-5-yl)amino)nicotinonitrile], the “Aq. sol. (HPLC, shown in parentheses)” value in “HPLC solubility assay” is “(25) μM”.
Turning to `Cn1c(=O)n(CCC(C)(C)O)c2cc(Nc3nc(N4CCC(C(F)(F)F)CC4)ncc3Cl)ccc21` [Compound 27h, 5-((5-Chloro-2-(4-(trifluoromethyl)piperidin-1-yl)pyrimidin-4-yl)amino)-3-(3-hydroxy-3-methylbutyl)-1-methyl-1,3-dihydro-2H-benzo[d]imidazol-2-one], the “BCL6 degradation” value at BCL6 [1] is “loss of degradation activity”.
Same read-out and setting: with `C[C@@H]1C[C@H](C)CN(c2cc(Nc3ccc4c(c3)n(CCC(C)(C)O)c(=O)n4C)c(Cl)cn2)C1` [Compound 26b, 5-((5-Chloro-2-((3S,5R)-3,5-dimethylpiperidin-1-yl)pyridin-4-yl)amino)-3-(3-hydroxy-3-methylbutyl)-1-methyl-1,3-dihydro-2H-benzo[d]imidazol-2-one] the entry was “identified as degraders”.
On to `Cn1c(=O)n(CCC(C)(C)O)c2cc(Nc3nc(N4C5CCC4CC(F)(F)C5)ncc3Cl)ccc21` [Compound 28b, 5-((5-Chloro-2-(3,3-difluoro-8-azabicyclo[3.2.1]octan-8-yl)pyrimidin-4-yl)amino)-3-(3-hydroxy-3-methylbutyl)-1-methyl-1,3-dihydro-2H-benzo[d]imidazol-2-one], for which the “BCL6 degradation” value on BCL6 [1] is given as “loss of degradation activity”.
`N#Cc1c(NCc2ccccc2)ccnc1Cl` [Compound 2] showed an IC50 against BCL6 BTB of roughly 100 µM.
Consider `C[C@@H]1C[C@H](C)CN(c2ncc(Cl)c(Nc3ccc4c(c3)n(CCC(C)(C)O)c(=O)n4C)n2)C1` [Compound 24b, 5-((5-Chloro-2-((3S,5R)-3,5-dimethylpiperidin-1-yl)pyrimidin-4-yl)amino)-3-(3-hydroxy-3-methylbutyl)-1-methyl-1,3-dihydro-2H-benzo[d]imidazol-2-one], for which, on BCL6 [3], the “BCL6 protein levels by Western blot, SU-DHL-4” value is reported as “concentration-dependent reduction in BCL6 protein levels”. Besides, the “BCL6 degradation” value on BCL6 [1] is listed as “identified as degraders”. At BCL6 [4], the “BCL6 protein levels by Western blot, OCI-Ly1” value is listed as “concentration-dependent reduction in BCL6 protein levels”. Moreover, the “metabolism in mouse microsomes (in words)” value in series [2] is recorded as “rapid metabolism”.
In the case of `COCC1CN(c2ncc(Cl)c(Nc3ccc4c(c3)n(CCC(C)(C)O)c(=O)n4C)n2)CCC1(F)F` (centres unmarked) [Compound 27f, 5-((5-Chloro-2-(4,4-difluoro-3-(methoxymethyl)piperidin-1-yl)pyrimidin-4-yl)amino)-3-(3-hydroxy-3-methylbutyl)-1-methyl-1,3-dihydro-2H-benzo[d]imidazol-2-one], the “BCL6 degradation” value at BCL6 [1] is listed as “reduced degradation”.
Turning to `C[C@@H]1CN(c2ncc(Cl)c(Nc3ccc4c(c3)n(CCC(C)(C)O)c(=O)n4C)n2)C[C@H](C)C1(F)F` [Compound 1, 5-((5-Chloro-2-((3R,5S)-4,4-difluoro-3,5-dimethylpiperidin-1-yl)pyrimidin-4-yl)amino)-3-(3-hydroxy-3-methylbutyl)-1-methyl-1,3-dihydro-2H-benzo[d]imidazol-2-one], the “appearance of mice after dosing” value in series [5] is reported as “appeared normal”. Moreover, in series [6], the “time mean total blood concentration above the desired concentration” value is given as “approximately 10 h”. For the same compound, on BCL6 levels in tumor, the “free concentration that leads to degradation of BCL6 in tumor” value was greater than 1 nM and the “time of maximal effect on tumor BCL6” value is recorded as roughly 4 h. Also, at BCL6 levels in tumor (OCI-Ly1 xenograft, up to 10 h after dosing), the “levels of BCL6 in the tumor” value was “clear decrease in levels of BCL6 in the tumor”. Further, the adverse events result at BCL6 levels in tumor (SCID mice) is “No visible adverse events were observed”.
